The text below walks through data of US8344028B2, “Gamma-amino-butyric acid derivatives as GABAB receptor ligands” (XenoPort, Inc., priority 2009, dated 2013).

The test deals with GABAB receptor (Homo sapiens, UniProt Q9UBS5). The test can be described thus: GABAB receptor agonist or partial agonist activity by binding, electrophysiology, cAMP and/or Ca2+ assay methods (Examples 83-86). It is filed as cell-based. On the procedure: An assay using rat cerebral cortex membranes was used to determine the affinity of GABAB receptor ligands for the GABAB receptor.
GABAB receptor, sequence (Q9UBS5 20-961): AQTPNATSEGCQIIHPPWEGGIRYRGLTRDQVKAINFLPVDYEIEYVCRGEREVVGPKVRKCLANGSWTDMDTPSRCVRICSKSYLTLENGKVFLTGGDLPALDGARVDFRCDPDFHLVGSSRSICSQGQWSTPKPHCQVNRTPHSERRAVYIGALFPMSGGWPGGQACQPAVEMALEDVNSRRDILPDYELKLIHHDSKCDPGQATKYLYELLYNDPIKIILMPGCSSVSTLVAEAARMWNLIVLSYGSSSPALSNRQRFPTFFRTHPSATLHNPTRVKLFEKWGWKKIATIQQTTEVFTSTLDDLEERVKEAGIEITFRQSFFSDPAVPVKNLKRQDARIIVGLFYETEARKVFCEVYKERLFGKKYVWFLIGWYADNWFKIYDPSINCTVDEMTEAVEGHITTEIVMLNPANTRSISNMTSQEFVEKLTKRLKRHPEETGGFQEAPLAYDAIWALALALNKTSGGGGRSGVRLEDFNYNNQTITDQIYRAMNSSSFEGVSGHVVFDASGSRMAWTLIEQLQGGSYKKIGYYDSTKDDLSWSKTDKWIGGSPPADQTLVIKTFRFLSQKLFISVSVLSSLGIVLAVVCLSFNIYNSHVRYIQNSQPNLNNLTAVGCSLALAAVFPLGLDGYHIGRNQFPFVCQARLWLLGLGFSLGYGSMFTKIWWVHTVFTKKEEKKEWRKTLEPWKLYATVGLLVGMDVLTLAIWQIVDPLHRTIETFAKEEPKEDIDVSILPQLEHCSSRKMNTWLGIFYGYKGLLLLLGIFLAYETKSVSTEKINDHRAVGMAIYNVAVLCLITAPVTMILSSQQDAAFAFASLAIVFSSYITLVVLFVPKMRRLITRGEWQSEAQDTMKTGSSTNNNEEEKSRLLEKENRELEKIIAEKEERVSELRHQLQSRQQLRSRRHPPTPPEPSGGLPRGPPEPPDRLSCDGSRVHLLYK
GABAB receptor, sequence (O75899 42-941 partner): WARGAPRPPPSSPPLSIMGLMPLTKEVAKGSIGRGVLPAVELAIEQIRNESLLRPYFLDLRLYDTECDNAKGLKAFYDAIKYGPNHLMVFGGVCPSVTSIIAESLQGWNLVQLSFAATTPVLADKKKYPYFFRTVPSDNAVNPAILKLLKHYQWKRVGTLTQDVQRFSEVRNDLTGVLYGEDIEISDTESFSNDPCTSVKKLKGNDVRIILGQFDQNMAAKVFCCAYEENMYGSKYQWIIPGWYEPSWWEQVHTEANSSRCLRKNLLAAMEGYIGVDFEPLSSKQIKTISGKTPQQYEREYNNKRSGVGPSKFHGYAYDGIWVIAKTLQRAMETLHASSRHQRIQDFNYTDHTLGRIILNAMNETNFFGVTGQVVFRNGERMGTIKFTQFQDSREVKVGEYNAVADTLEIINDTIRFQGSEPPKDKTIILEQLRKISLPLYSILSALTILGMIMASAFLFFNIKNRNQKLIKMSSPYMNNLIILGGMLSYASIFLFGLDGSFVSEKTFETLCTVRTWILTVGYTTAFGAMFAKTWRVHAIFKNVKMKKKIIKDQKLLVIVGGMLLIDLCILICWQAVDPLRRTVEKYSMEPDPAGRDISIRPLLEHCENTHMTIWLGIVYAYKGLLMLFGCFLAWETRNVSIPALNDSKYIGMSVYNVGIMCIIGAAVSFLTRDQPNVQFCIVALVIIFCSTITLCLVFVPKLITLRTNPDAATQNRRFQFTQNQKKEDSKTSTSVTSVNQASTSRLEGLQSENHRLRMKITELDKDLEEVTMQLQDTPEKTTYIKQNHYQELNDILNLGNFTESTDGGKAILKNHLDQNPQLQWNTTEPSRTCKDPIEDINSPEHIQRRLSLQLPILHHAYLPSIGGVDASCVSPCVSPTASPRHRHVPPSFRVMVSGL
An assay buffer of 50 mM Tris pH 7.4 was prepared with 100 μM of isoguvacine, to block GABAA interactions. The assay buffer with isoguvacine was used for dilution of membranes, compounds, and radiolabel.
Rat cerebral cortex membranes were diluted in assay buffer at 1 mg/mL and aliquoted into a 96-well plate at 900 μL/well. Buffer or test compound were added at 20-times final concentration in the buffer at 50 μL/well. Membranes and test compounds or buffer were incubated for 10 min. at room temperature. Radiolableled [S—(R*,R*)]-[3-[[1-(3,4-dichlorophenyl)ethyl]amino]-2-hydroxypropyl](cyclohexylmethyl) phosphinic acid (CGP54626) was then added at 50 μL/well in the buffer at 1-10 nM concentration in 50 μl. […] The assay mixture was filtered using Brandell filtration apparatus and GFB filters, washed twice with 3 mL of 4° C., 50 mM Tris pH 7.4, buffer without isoguvacine. The filters were then dried at room temperature and the dried filters punched out and placed in individual vials. Three (3) mL of scintillation fluid was added to each vial and the radiolabel counted on the scintillation counter. The inverse amount of radiolabel was indicative of binding of a test compound to the GABAB receptor.
The following procedure was used to determine the level of intracellular cAMP. Recombinant HEK cells expressing the GABAB R1a2 receptor were used in the experiments. cAMP levels were measured using a cAMP XS^+ HitHunter™ Chemiluminescence Assay Kit (90-0075-02, GE Healthcare Biosciences Corp.). Cells were seeded overnight at 5,000 cells per well, in black, clear bottom 96-well plates. The following morning, cells were washed twice with 100 μL PBS per well. Forskolin was weighed out and dissolved in DMSO to a final concentration 100 mM. One-hundred (100) μM forskolin solutions were prepared in PBS with and without test compound at 1-times final concentration. Thirty (30) μL of the test solutions were added to the wells and incubated for 1 h at room temperature. The cAMP concentration was determined according to the protocol described in the cAMP assay kit, maintaining the plate at room temperature and in the dark. […] Each well was read for 6 seconds. The untransformed data was then analyzed.
The following procedure was used to determine the GABAB receptor agonist activity of a compound as reflected by activation of Ca^2+ signaling. HEK TREx cells expressing GABABR1a2 under tetracycline induction control, and Gqi chimeric protein (expressed constitutively), allowing GABABR coupling through the Ca^2+ signaling pathway were used in the experiments.
Cells were seeded in media containing tetracycline overnight at 100,000 cells/well, in black, clear-bottom, 96-well plates. The following morning, cells were washed twice with 100 μL HBSS buffer per well. Fluorescent Ca^2+ indicator dye was prepared using the materials and procedure described in the F362056 Fluo-4 NW Calcium Assay Kit (Invitrogen, Carlsbad, Calif.). Ten (10) mL of kit buffer and 100 μl of kit Probenecid were added to individual kit dye vials, and rolled back and forth several times to dissolve the dye. Cells were then loaded into the dye solution at 50 μL per well. The cells and dye were incubated for 30 min at 37° C., and then incubated for an additional 30 min at room temperature in the dark. Test compounds are dissolved in HBSS buffer at twice final concentration. Duplicate wells were used for each unique condition. Solution containing the test compound was added to the wells using a FLEXStation II (Molecular Devices, Sunnyvale, Calif.). Using the instrument in kinetic mode in which each well was read every 2 sec over a total collection time of 50 sec fluorescence was measured using an excitation wavelength 494 nm and a detection wavelength of 516 nm. A normalized fluorescence value for each well was calculated using the following procedure.

`Cl.NC[C@H](CC(=O)O)c1ccc(Cl)c(-c2cncc3ccccc23)c1` [(3R)-4-amino-3-(4-chloro-3-(4-isoquinolyl)phenyl)butanoic acid hydrochloride]: the “GABAB receptor agonist or partial agonist activity” value is recorded as “agonist or partial agonist activity”.
On to `NC[C@H](CC(=O)O)c1ccc(Cl)c(NC(=O)c2ccccn2)c1` [(3R)-4-amino-3-[4-chloro-3-(2-pyridylcarbonylamino)phenyl]butanoic acid], for which the “GABAB receptor agonist or partial agonist activity” value is reported as “agonist or partial agonist activity”.
The same measure for `Cl.NC[C@H](CC(=O)O)c1cccc(-c2cccc(C(=O)O)c2)c1` [Example 51, 3-{3-[(1R)-2-Amino-1-(carboxymethyl)ethyl]phenyl}benzoic acid hydrochloride]: “agonist or partial agonist activity”; for `Cl.N#Cc1cc(Cl)cc(-c2cc([C@H](CN)CC(=O)O)ccc2Cl)c1` [(3R)-4-amino-3-[4-chloro-3-(5-chloro-3-cyanophenyl)phenyl]butanoic acid hydrochloride]: “agonist or partial agonist activity”; for `Cl.NC[C@H](CC(=O)O)c1ccc(Cl)c(-c2ccc(C(=O)O)cc2Cl)c1` [Example 44, 4-{5-[(1R)-2-Amino-1-(carboxymethyl)ethyl]-2-chlorophenyl}-3-chlorobenzoic acid hydrochloride]: “agonist or partial agonist activity”.
For `NC[C@H](CC(=O)O)c1ccc(Cl)c(-c2ccsc2)c1` [(3R)-4-amino-3-[4-chloro-3-(3-thienyl)phenyl]butanoic acid], the “GABAB receptor agonist or partial agonist activity” value was “agonist or partial agonist activity”.
For the compound `NC[C@H](CC(=O)O)c1ccc(Cl)c(NCCc2ccccc2)c1` [(3R)-4-amino-3-{4-chloro-3-[(2-phenylethyl)amino]phenyl}butanoic acid], the “GABAB receptor agonist or partial agonist activity” value is “agonist or partial agonist activity”.
The same measure for `Cl.NC[C@H](CC(=O)O)c1ccc(Cl)c(OCc2ccccn2)c1` [(3R)-4-amino-3-[4-chloro-3-(2-pyridylmethoxy)phenyl]butanoic acid hydrochloride]: “agonist or partial agonist activity”; for `Cl.NC[C@H](CC(=O)O)c1ccc(Cl)c(OCc2cccc(C(=O)O)c2)c1` [3-({5-[(1R)-2-amino-1-(carboxymethyl)ethyl]-2-chlorophenoxy}methyl)benzoic acid hydrochloride]: “agonist or partial agonist activity”; for `Cl.NC[C@H](CC(=O)O)c1ccc(Cl)c(-c2ccc(O)c(Cl)c2)c1` [(3R)-4-amino-3-[4-chloro-3-(3-chloro-4-hydroxyphenyl)phenyl]butanoic acid hydrochloride]: “agonist or partial agonist activity”.
The same measure for `NC[C@H](CC(=O)O)c1cc(Br)c(Cl)c(-c2cc(Cl)cc(C(=O)O)c2)c1` [3-{5-[(1R)-2-amino-1-(carboxymethyl)ethyl]-3-bromo-2-chlorophenyl}-5-chlorobenzoic acid]: “agonist or partial agonist activity”; for `Cl.NC[C@@H](CC(=O)O)c1ccc(Cl)c(-c2cccc(C(=O)O)c2)c1` [3-{5-[(1S)-2-amino-1-(carboxymethyl)ethyl]-2-chlorophenyl}benzoic acid hydrochloride]: “agonist or partial agonist activity”.
The same measure for `Cl.N#Cc1cccc(-c2cc([C@H](CN)CCO)ccc2Cl)c1` [Example 53, 3-{5-[(1R)-1-(Aminomethyl)-3-hydroxypropyl]-2-chlorophenyl}benzenecarbonitrile hydrochloride]: “agonist or partial agonist activity”; for `Cl.NC[C@H](CC(=O)O)c1ccc(Cl)c(-c2ccccc2)c1` [Example 39, (3R)-4-Amino-3-(4-chloro-3-phenyl-phenyl)butanoic acid hydrochloride]: “agonist or partial agonist activity”.
Take `Cl.N#Cc1cc(-c2cc([C@H](CN)CC(=O)O)ccc2Cl)ccc1F` [(3R)-4-amino-3-[4-chloro-3-(3-cyano-4-fluorophenyl)phenyl]butanoic acid hydrochloride]: the “GABAB receptor agonist or partial agonist activity” value is “agonist or partial agonist activity”.
`Cl.NC[C@H](CC(=O)O)c1ccc(Cl)c(NS(=O)(=O)c2ccccn2)c1` [(3R)-4-amino-3-{4-chloro-3-[(2-pyridylsulfonyl)amino]phenyl}butanoic acid hydrochloride]: the “GABAB receptor agonist or partial agonist activity” value was “agonist or partial agonist activity”.
The same measure for `Cl.N#Cc1cncc(-c2cc([C@H](CN)CC(=O)O)ccc2Cl)c1` [(3R)-4-amino-3-[4-chloro-3-(5-cyano(3-pyridyl))phenyl]butanoic acid hydrochloride]: “agonist or partial agonist activity”; for `Cl.NC[C@H](CC(=O)O)c1ccc(Cl)c(Cc2ccc(C(=O)O)cc2)c1` [4-({5-[(1R)-2-amino-1-(carboxymethyl)ethyl]-2-chlorophenyl}methyl)benzoic acid hydrochloride]: “agonist or partial agonist activity”; for `COc1cccc(-c2cc([C@H](CN)CC(=O)O)ccc2Cl)c1.Cl` [Example 35, (3R)-4-Amino-3-[4-chloro-3-(3-methoxyphenyl)phenyl]butanoic acid hydrochloride]: “agonist or partial agonist activity”.
For `Cl.NC[C@H](CC(=O)O)c1ccc(Cl)c(NCc2ccoc2)c1` [Example 64, (3R)-4-Amino-3-{4-chloro-3-[(3-furylmethyl)amino]phenyl}butanoic acid hydrochloride] the value was “agonist or partial agonist activity”; for `Cl.NC[C@H](CC(=O)O)c1ccc(Cl)cc1C(=O)c1ccccc1` [Example 11, (3R)-4-Amino-3-[4-chloro-2-(phenylcarbonyl)phenyl]butanoic acid hydrochloride], “agonist or partial agonist activity”.
The same measure for `Cl.NC[C@H](CC(=O)O)c1ccc(Cl)c(Cc2cccc([N+](=O)[O-])c2)c1` [(3R)-4-amino-3-{4-chloro-3-[(3-nitrophenyl)methyl]phenyl}butanoic acid hydrochloride]: “agonist or partial agonist activity”.
Regarding `Cl.NC[C@H](CC(=O)O)c1ccc(Cl)c(NCc2cc(C(F)(F)F)cc(C(F)(F)F)c2)c1` [(3R)-4-amino-3-[3-({[3,5-bis(trifluoromethyl)phenyl]methyl}amino)-4-chlorophenyl]butanoic acid hydrochloride], the “GABAB receptor agonist or partial agonist activity” value was “agonist or partial agonist activity”.
For `NC[C@H](CC(=O)O)c1ccc(Cl)c(Nc2ccccc2C(=O)O)c1` [Example 13, 2-({5-[(1R)-2-Amino-1-(carboxymethyl)ethyl]-2-chlorophenyl}amino)benzoic acid] the value was “agonist or partial agonist activity”; for `NC[C@H](CC(=O)O)c1ccc(Cl)c(CCCC(=O)O)c1` [4-{5-[(1R)-2-amino-1-(carboxymethyl)ethyl]-2-chlorophenyl}butanoic acid], “agonist or partial agonist activity”.
